Laboratory results from paper PMC3260434 (Journal of Molecular Neuroscience, 2011).
No end group written: not given here.

Key:
[1] = test system: primary neuronal cell cultures from rat cerebral cortex; assay: Assay of cyclic AMP formation; type: cell-based; conditions: for Increase in cyclic AMP production over the basal level: forskolin 1 μM, PACAP27 0.1 μM, VIP 3 μM, rat neuronal cell cultures
OX2R = conditions: heterologous expression systems; ref Sakurai et al. [1998]; Ammoun et al. [2003]; cited from earlier work
[2] = test system: astrocyte cultures from rat cerebral cortex; conditions: ref Woldan-Tambor et al. [2011]; cited from earlier work

| Compound | Increase in cyclic AMP production over the basal level [1] | further results |
| --- | --- | --- |
| PACAP27 | three- to fivefold over the basal level |  |
| orexin B: neuropeptide derived from preproorexin; literature affinity only |  | Affinity of OX2R for orexins A and B (OX2R): equal affinity |
| orexin A: neuropeptide, an agonist of OX1R and OX2R; from NeoMPS (QPLPDCCRQKTCSCRLYELLHGAGNHAAGILTL; ends and bridges not checked; cysteine pairing not given here; UniProt O43612 34-66, looked up) |  | Effect on cyclic AMP synthesis in astrocyte cultures [2]: stimulatory effect |
| C=C[C@@]1(C)CC(=O)[C@]2(O)[C@@]3(C)[C@@H](O)CCC(C)(C)[C@@H]3[C@H](O)[C@H](OC(C)=O)[C@@]2(C)O1 [forskolin] | three- to fivefold over the basal level |  |
| [Ala^11-D-Leu^15]orexin B |  | Effect on basal cyclic AMP accumulation ([1]; 0.001–1 μM, cultured rat cortical neurons, data not shown): No significant effects |
| VIP: vasoactive intestinal peptide (human, porcine, and rat) (HSDAVFTDNYTRLRKQMAVKKYLNSILN; ends and bridges not checked; UniProt P01282 125-152, looked up) | three- to fivefold over the basal level |  |
